Results from ChEMBL document CHEMBL1125122, “Antibacterials. Synthesis and structure-activity studies of 3-aryl-2-oxooxazolidines. 2. The "A" group” (1990).
≈ marks a conversion by molar mass, not a printed value.

Tests used:
[1] = system: Enterococcus faecalis; experiment: In vitro for antibacterial activity against Enterococcus faecalis strain STCO-19; format: functional
[2] = system: Staphylococcus aureus; experiment: In vitro for antibacterial activity against Staphylococcus aureus strain SFCO-1a; format: functional

Structure (SMILES) | MIC [1] [µg/mL] | MIC [2] [µg/mL]
CCCc1ccc(N2C[C@H](CNC(C)=O)OC2=O)cc1 | 4 (≈ 14.5 µM) | 2 (≈ 7.24 µM)
CC(=O)NC[C@H]1CN(c2ccc(C(=O)CF)cc2)C(=O)O1 | 2 (≈ 6.8 µM) | 2 (≈ 6.8 µM)
CC(=O)NC[C@H]1CN(c2ccc(C(C)(C)O)cc2)C(=O)O1 | 4 (≈ 13.7 µM) | 2 (≈ 6.84 µM)
CCCC(=O)c1ccc(N2C[C@H](CNC(C)=O)OC2=O)cc1 | 0.25 (≈ 0.821 µM) | 0.25 (≈ 0.821 µM)
CCC(=O)c1ccc(N2C[C@H](CNC(C)=O)OC2=O)cc1 | 0.5 (≈ 1.72 µM) | 1 (≈ 3.44 µM)
CC(=O)NC[C@H]1CN(c2ccccc2)C(=O)O1 | 128 (≈ 546 µM) | 128 (≈ 546 µM)
CC(=O)NC[C@H]1CN(c2ccc([S+]([O-])CF)cc2)C(=O)O1 (stereo partly specified) | 8 (≈ 25.5 µM) | 8 (≈ 25.5 µM)
CC(=O)NC[C@H]1CN(c2ccc(/C=N\O)cc2)C(=O)O1 | 16 (≈ 57.7 µM) | 16 (≈ 57.7 µM)
C#Cc1ccc(N2C[C@H](CNC(C)=O)OC2=O)cc1 | 16 (≈ 61.9 µM) | 16 (≈ 61.9 µM)
CC(=O)NC[C@H]1CN(c2ccc(N)cc2)C(=O)O1 | 128 (≈ 513 µM) | 128 (≈ 513 µM)
CCN(CC)c1ccc(N2C[C@H](CNC(C)=O)OC2=O)cc1 | 16 (≈ 52.4 µM) | 8 (≈ 26.2 µM)
CC(=O)NC[C@H]1CN(c2ccc(C(=O)CC#N)cc2)C(=O)O1 | 64 (≈ 212 µM) | 8 (≈ 26.6 µM)
CCC/C(=N/O)c1ccc(N2C[C@H](CNC(C)=O)OC2=O)cc1 | 4 (≈ 12.5 µM) | 4 (≈ 12.5 µM)
CC(=O)NC[C@H]1CN(c2ccc(C(F)(F)C(F)(F)F)cc2)C(=O)O1 | 2 (≈ 5.68 µM) | 2 (≈ 5.68 µM)
CC(=O)NC[C@H]1CN(c2ccc(C(O)C(C)C)cc2)C(=O)O1 (stereo partly specified) | 8 (≈ 26.1 µM) | 4 (≈ 13.1 µM)
CC(=O)NC[C@H]1CN(c2ccc(C(=O)COC(C)=O)cc2)C(=O)O1 | 2 (≈ 5.98 µM) | 0.5 (≈ 1.5 µM)
CC(=O)NC[C@H]1CN(c2ccc(C(=O)C(C)C)cc2)C(=O)O1 | 1 (≈ 3.29 µM) | 1 (≈ 3.29 µM)
CC(=O)NC[C@H]1CN(c2ccc(C(=O)CBr)cc2)C(=O)O1 | 8 (≈ 22.5 µM) | 4 (≈ 11.3 µM)

Structure (SMILES) | MIC [1] [µg/mL] | MIC [2] [µg/mL]
CC(=O)NC[C@H]1CN(c2ccc(SC(F)(F)F)cc2)C(=O)O1 | 4 (≈ 12 µM) | 4 (≈ 12 µM)
CC(=O)NC[C@H]1CN(c2ccc([N+](=O)[O-])cc2)C(=O)O1 | 2 (≈ 7.16 µM) | 2 (≈ 7.16 µM)
CCSc1ccc(N2C[C@H](CNC(C)=O)OC2=O)cc1 | 2 (≈ 6.79 µM) | 1 (≈ 3.4 µM)
CCCC(O)c1ccc(N2C[C@H](CNC(C)=O)OC2=O)cc1 (stereo partly specified) | 32 (≈ 104 µM) | 16 (≈ 52.2 µM)
CCCSc1ccc(N2C[C@H](CNC(C)=O)OC2=O)cc1 | 8 (≈ 25.9 µM) | 8 (≈ 25.9 µM)
CC(=O)NC[C@H]1CN(c2ccc(C(=O)CCl)cc2)C(=O)O1 | 2 (≈ 6.44 µM) | 0.5 (≈ 1.61 µM)
CC(=O)NC[C@H]1CN(c2ccc(C(C)(C)C)cc2)C(=O)O1 | 2 (≈ 6.89 µM) | 1 (≈ 3.44 µM)
CC(=O)NC[C@H]1CN(c2ccc([S+]([O-])C(F)(F)F)cc2)C(=O)O1 (stereo partly specified) | 2 (≈ 5.71 µM) | 2 (≈ 5.71 µM)
CCCCOc1ccc(N2C[C@H](CNC(C)=O)OC2=O)cc1 | 16 (≈ 52.2 µM) | 8 (≈ 26.1 µM)
CC(=O)NCC(=O)c1ccc(N2C[C@H](CNC(C)=O)OC2=O)cc1 | 16 (≈ 48 µM) | 8 (≈ 24 µM)
CC(=O)NC[C@H]1CN(c2ccc(Sc3ccccc3)cc2)C(=O)O1 | 128 (≈ 374 µM) | > 128
CCC[S+]([O-])c1ccc(N2C[C@H](CNC(C)=O)OC2=O)cc1 (stereo partly specified) | 64 (≈ 197 µM) | 32 (≈ 98.6 µM)
CCC(O)c1ccc(N2C[C@H](CNC(C)=O)OC2=O)cc1 (stereo partly specified) | 64 (≈ 219 µM) | 32 (≈ 109 µM)
CC(=O)NC[C@H]1CN(c2ccc(C(F)(F)F)cc2)C(=O)O1 | 8 (≈ 26.5 µM) | 8 (≈ 26.5 µM)
CC(=O)NCC1CN(c2ccc(Oc3ccccc3)cc2)C(=O)O1 (racemic) | 64 (≈ 196 µM) | 64 (≈ 196 µM)
CCCCc1ccc(N2CC(CNC(C)=O)OC2=O)cc1 (racemic) | 4 (≈ 13.8 µM) | 4 (≈ 13.8 µM)
CCOC(=O)c1ccc(N2CC(CNC(C)=O)OC2=O)cc1 (racemic) | 4 (≈ 13.1 µM) | 4 (≈ 13.1 µM)

Other lines, results leading:

MIC [1] [µg/mL] | MIC [2] [µg/mL] | Structure (SMILES)
16 (≈ 54 µM) | 8 (≈ 27 µM) | CC(=O)NC[C@H]1CN(c2ccc([S@+](C)[O-])cc2)C(=O)O1
4 (≈ 13.5 µM) | 4 (≈ 13.5 µM) | CC(=O)NC[C@@H]1CN(c2ccc(S(C)=O)cc2)C(=O)O1 (stereo partly specified)
32 (≈ 129 µM) | 32 (≈ 129 µM) | CC(=O)NC[C@H]1CN(c2ccc(C)cc2)C(=O)O1
8 (≈ 30.5 µM) | 8 (≈ 30.5 µM) | CC(=O)NC[C@H]1CN(c2ccc(C=O)cc2)C(=O)O1
4 (≈ 13.5 µM) | 4 (≈ 13.5 µM) | CC(=O)NC[C@H]1CN(c2ccc([S+](C)[O-])cc2)C(=O)O1 (stereo partly specified)
8 (≈ 22.2 µM) | 8 (≈ 22.2 µM) | CC(=O)NC[C@H]1CN(c2ccc(I)cc2)C(=O)O1
8 (≈ 25.5 µM) | 16 (≈ 51.1 µM) | CC(=O)NC[C@H]1CN(c2ccc(Br)cc2)C(=O)O1
4 (≈ 14.4 µM) | 4 (≈ 14.4 µM) | CC(=O)NC[C@H]1CN(c2ccc(C(C)O)cc2)C(=O)O1 (stereo partly specified)
2 (≈ 6.84 µM) | 2 (≈ 6.84 µM) | COC(=O)c1ccc(N2C[C@H](CNC(C)=O)OC2=O)cc1
1 (≈ 3.03 µM) | 1 (≈ 3.03 µM) | CC(=O)NC[C@H]1CN(c2ccc(S(=O)(=O)CF)cc2)C(=O)O1
16 (≈ 57.7 µM) | 16 (≈ 57.7 µM) | CC(=O)NC[C@H]1CN(c2ccc(N(C)C)cc2)C(=O)O1
2 (≈ 5.46 µM) | 2 (≈ 5.46 µM) | CC(=O)NC[C@H]1CN(c2ccc(S(=O)(=O)C(F)(F)F)cc2)C(=O)O1
2 (≈ 6.87 µM) | 4 (≈ 13.7 µM) | CC(=O)NC[C@H]1CN(c2ccc(/C(C)=N\O)cc2)C(=O)O1
8 (≈ 24.5 µM) | 8 (≈ 24.5 µM) | CCS(=O)(=O)c1ccc(N2C[C@H](CNC(C)=O)OC2=O)cc1
8 (≈ 30.5 µM) | 4 (≈ 15.2 µM) | CCc1ccc(N2C[C@H](CNC(C)=O)OC2=O)cc1
32 (≈ 94 µM) | 32 (≈ 94 µM) | CCCS(=O)(=O)c1ccc(N2C[C@H](CNC(C)=O)OC2=O)cc1
8 (≈ 30.7 µM) | 4 (≈ 15.4 µM) | C=Cc1ccc(N2C[C@H](CNC(C)=O)OC2=O)cc1
4 (≈ 12.8 µM) | 4 (≈ 12.8 µM) | CC(=O)NC[C@H]1CN(c2ccc(S(C)(=O)=O)cc2)C(=O)O1
8 (≈ 27.6 µM) | 4 (≈ 13.8 µM) | CC(=O)Cc1ccc(N2C[C@H](CNC(C)=O)OC2=O)cc1
4 (≈ 14.3 µM) | 4 (≈ 14.3 µM) | CSc1ccc(N2C[C@H](CNC(C)=O)OC2=O)cc1
64 (≈ 238 µM) | 32 (≈ 119 µM) | CC(=O)NCC1CN(c2ccc(Cl)cc2)C(=O)O1 (racemic)
16 (≈ 60.5 µM) | 32 (≈ 121 µM) | CC(=O)NCC1CN(c2ccc(CO)cc2)C(=O)O1 (racemic)
4 (≈ 14.5 µM) | 4 (≈ 14.5 µM) | CC(=O)NCC1CN(c2ccc(C(C)C)cc2)C(=O)O1 (racemic)
> 64 | > 64 | CC(=O)NCC1CN(c2ccc(F)cc2)C(=O)O1 (racemic)
16 (≈ 61.7 µM) | 16 (≈ 61.7 µM) | CC(=O)NCC1CN(c2ccc(C#N)cc2)C(=O)O1 (racemic)
32 (≈ 121 µM) | 32 (≈ 121 µM) | COc1ccc(N2CC(CNC(C)=O)OC2=O)cc1 (racemic)
16 (≈ 51.6 µM) | 16 (≈ 51.6 µM) | CC[S+]([O-])c1ccc(N2CC(CNC(C)=O)OC2=O)cc1 (single isomer, unassigned)
1 (≈ 3.62 µM) | 0.5 (≈ 1.81 µM) | CC(=O)NC[C@H]1CN(c2ccc(C(C)=O)cc2)C(=O)O1 [DUP-721]
